Reference: patent US20220252625A1, “TREATMENT AND DIAGNOSIS OF CHRONIC INFLAMMATORY CONDITIONS IN THE LOWER URINARY TRACT” (SELECTIMMUNE PHARMA AB, priority 2019, published 2022)
Entries after “also recorded” stand apart in the source; their conditions may differ. Like-named read-outs stand apart in the source and are kept apart here.

Tests used:
[1] = tested on: patients with chronic cystitis and CPPS; experiment: Open Anakinra trial, symptom score; format: in vivo, human
Experimental: The applicants have performed an open Anakinra trial in patients with chronic inflammatory conditions in the lower urinary tract, specifically chronic cystitis and CPPS. This structured observational study to investigate the effect of treatment with Anakinra in patients suffering from chronic cystitis and CPPS.
Inclusion visit: Patient is informed about the study and is included after signed informed consent is obtained. A structured interview and clinical investigation is performed. The disease severity is evaluated using a symptom score. Follow-up visits are booked.
A structured interview and clinical investigation is performed. Symptom severity is recorded.
Treatment with Anakinra is started and continued for seven days (until next visit).
Evaluation of effect after one week of treatment with Anakinra. A structured interview and clinical investigation are performed. Symptom severity is evaluated. Patients with no treatment effect are excluded from further treatment.
Follow-up after treatment pause. A structured interview and clinical investigation is performed. Symptom severity is evaluated. If the patient has relapse, Anakinra treatment is resumed.
Follow-up with evaluation of effect after three weeks of treatment with Anakinra. A structured interview and clinical investigation is performed. Symptom severity is evaluated.
Final visit after pause of treatment with Anakinra. A structured interview and clinical investigation is performed. Symptom severity is evaluated.
During patient visits, structured interviews evaluating symptoms (including consumption of medications) and clinical investigations are performed. Throughout the study period, the patients make daily symptom scores regarding pain, urination, sense of urgency and quality of life following a structured formula.

[2] = tested on: neuroinflammation and IL-1-dependent gene expression; experiment: Ten-patient CPPS trial: gene expression analysis of peripheral blood RNA; format: in vivo, human
From the text: Blood samples for DNA- and RNA-analyses as well as urine samples for proteomics are obtained throughout the study.

[3] = tested on: neuro-inflammation, TLR dependent pattern recognition and IL-1 signaling; IL-1R1 dependent gene network; experiment: BPS trial: transcriptomic analysis of peripheral blood RNA; format: in vivo, human; details: for gene expression, words: peripheral blood RNA
From the text: a) Schematic of the study protocol. Ten patients with a long history of BPS (ref EAU guidelines) were enrolled after informed consent and instructed to fill in a questionnaire detailing frequency of urination, pain, frequency of pain medication and quality of life. Laboratory samples were obtained at diagnosis, after the initiation of Kineret treatment (n=10), during the “treatment break” and after continuation of Kineret treatment (n=9). Neuropeptides involved in the pain response (Substance P) were quantified in urine. Peripheral blood RNA was subjected to genome wide transcriptomic analysis to define molecular effects of Kineret treatment.
To further understand the molecular basis of these effects, gene expression was analyzed longitudinally in RNA samples obtained; at onset, when the patients were in pain; at the time of maximum treatment effect in the first round; when pain returned during the treatment break; after reintroduction of Anakinra and at follow up, after 1-2 years of treatment. […] Due to the pronounced effect on IL-1 related genes, we further investigated a gene network downstream of IL-1R1. In 8 out of 10 patients a marked reduction in IL-1R1 dependent gene expression was detected, primarily genes including CXCL1, IL1RAP CXCL3 and the IL1R1 gene itself.

murine cystitis model = details: mice, cited from earlier work

anakinra: interleukin-1 receptor antagonist (r-metHuIL-1ra) produced in Escherichia coli; recombinant, slightly modified version of the human interleukin-1 receptor antagonist protein
patients in whom treatment was proven effective (decrease in symptom scoring) ([1]; in vivo): 60%
Symptom Score Decrease at 1 week of treatment (number of patients) ([1]; of 15 patients recruited): 9
Symptom Score No Decrease at 1 week of treatment (number of patients) ([1]; of 15 patients recruited): 6
gene expression at the RNA level, words [2]: inhibited neuroinflammation and IL-1-dependent gene expression; also recorded: reduction in neuro-inflammation
patients with marked reduction in IL-1R1 dependent gene expression ([3]; genes including CXCL1, IL1RAP, CXCL3, IL1R1): 8 out of 10
gene expression, words [3]: inhibited by treatment
gene expression, words ([3]; listed as Kineret): inhibited
bacterial clearance, words (murine cystitis model): accelerate bacterial clearance
bladder inflammation, words (murine cystitis model): dramatically reduce bladder inflammation
bacterial clearance, words (murine cystitis model; listed as Kineret): increased bacterial clearance
bladder inflammation, words (murine cystitis model; listed as Kineret): dramatically reduced bladder inflammation
